# Assay results: patent US9346769B2, “Tetrazolones as inhibitors of fatty acid synthase” (Infinity Pharmaceuticals, Inc., priority 2010, dated 2016)
# Target: T1, human FASN (Homo sapiens, UniProt P49327)
# T1 construct: was purified from SKBR3 cells using procedures modified from those in Jayakumar et al; endogenous in cells; host or cells: SKBR3 human breast cancer cells (ATCC); Endogenous enzyme purified by ammonium sulfate precipitation and a mono Q column
# Assay: FASN NADPH Consumption Assay
# Type: biochemical
# Conditions: human FASN purified from SKBR3 cells; starred symbols
# Experimental: Human FASN protein (SEQ ID NO. 1) was purified from SKBR3 cells using procedures modified from those in Jayakumar et al. PNAS 1995, 92:8695-8699. SKBR3 cells were obtained from ATCC and grown in DMEM high glucose medium supplemented with 10% FBS, 1 μg/mL bovine pancreas insulin, 100 U/mL penicillin and 100 µg/mL streptomycin. The confluent cells were trypsinized and washed three times with PBS buffer before frozen in liquid N2 and stored at −80° C. Frozen cells were thawed on ice and resuspended in lysis buffer (25 mM Tris-HCl, pH 7.0, 15 mM NaCl, 1 mM EDTA, and 1 mM DTT) with protease inhibitors. The cells were lysed by sonication, and the cell debris was removed by centrifugation at 20,000 rpm for 30 min. To the supernatant, neutralized saturated ammonium sulfate solution was added to a final concentration of 35%. The solution was left on ice for 1 hr, and the precipitated proteins were harvested by centrifugation at 20,000 rpm for 30 min. The proteins were redissolved in lysis buffer without NaCl and loaded on a mono Q column. Bound proteins were eluted with a linear gradient of NaCl in lysis buffer. Each fraction was analyzed by SDS-PAGE and FASN NADPH consumption assay. The fractions containing FASN were pooled and concentrated to 2-3 mg/mL. Glycerol was added to 20%, and the protein was frozen in liquid N2 and stored at −80° C.
# All chemicals were purchased from Sigma (St. Louis, Mo.). The procedures of NADPH consumption assay were similar to those described in Cox et al., PNAS 1983, 80:4233-4237. On a 96-well polypropylene microplate, dilution series (typical concentrations 60 nM-1.0 mM) of test compounds were prepared in DMSO, of which 4.0 μL each was transferred to a black polystyrene assay microplate and mixed with 36 μL FASN assay buffer (50 mM potassium phosphate, pH 7.0, 1.0 mM EDTA, 0.01% NP-40) plus 5.0 mM fresh DTT. FASN protein (40 μL 150 nM FASN) was added per well, and the microplate was incubated at 37° C. for 30 min. Enzyme activity measurement was initiated by addition of 20 μL 5× substrate mixture to final concentrations of 60 nM FASN, 2.4 nM-40 μM compound, 0.2 mM NADPH, 50 μM butyryl-CoA, 0.5 mM malonyl-CoA in 100 μL assay buffer plus 5.0 mM DTT and 4.0% DMSO. NADPH consumption was monitored kinetically by fluorescence (λEx=340 nm, λEm=460 nm) on an EnVision 2100 multilabel plate reader (Perkin Elmer, Waltham, Mass.). FASN enzyme activity (slope) in the presence of 4% DMSO was used as maximum control, whereas background (minimum control) was measured by omission of malonyl-CoA in the substrate mixture. Inhibition curves were fitted by a logistic function to yield IC50 values:
# Compounds were assayed as inhibitors of human FASN using the above-described FASN Scintillation Proximity Flashplate Assay (IC50; nM) or FASN NADPH Consumption Assay (*) (IC50; nM). The corresponding activity of the isolated compound is also provided along with the measured mass (ES^+).
# T1 sequence (P49327 whole entry): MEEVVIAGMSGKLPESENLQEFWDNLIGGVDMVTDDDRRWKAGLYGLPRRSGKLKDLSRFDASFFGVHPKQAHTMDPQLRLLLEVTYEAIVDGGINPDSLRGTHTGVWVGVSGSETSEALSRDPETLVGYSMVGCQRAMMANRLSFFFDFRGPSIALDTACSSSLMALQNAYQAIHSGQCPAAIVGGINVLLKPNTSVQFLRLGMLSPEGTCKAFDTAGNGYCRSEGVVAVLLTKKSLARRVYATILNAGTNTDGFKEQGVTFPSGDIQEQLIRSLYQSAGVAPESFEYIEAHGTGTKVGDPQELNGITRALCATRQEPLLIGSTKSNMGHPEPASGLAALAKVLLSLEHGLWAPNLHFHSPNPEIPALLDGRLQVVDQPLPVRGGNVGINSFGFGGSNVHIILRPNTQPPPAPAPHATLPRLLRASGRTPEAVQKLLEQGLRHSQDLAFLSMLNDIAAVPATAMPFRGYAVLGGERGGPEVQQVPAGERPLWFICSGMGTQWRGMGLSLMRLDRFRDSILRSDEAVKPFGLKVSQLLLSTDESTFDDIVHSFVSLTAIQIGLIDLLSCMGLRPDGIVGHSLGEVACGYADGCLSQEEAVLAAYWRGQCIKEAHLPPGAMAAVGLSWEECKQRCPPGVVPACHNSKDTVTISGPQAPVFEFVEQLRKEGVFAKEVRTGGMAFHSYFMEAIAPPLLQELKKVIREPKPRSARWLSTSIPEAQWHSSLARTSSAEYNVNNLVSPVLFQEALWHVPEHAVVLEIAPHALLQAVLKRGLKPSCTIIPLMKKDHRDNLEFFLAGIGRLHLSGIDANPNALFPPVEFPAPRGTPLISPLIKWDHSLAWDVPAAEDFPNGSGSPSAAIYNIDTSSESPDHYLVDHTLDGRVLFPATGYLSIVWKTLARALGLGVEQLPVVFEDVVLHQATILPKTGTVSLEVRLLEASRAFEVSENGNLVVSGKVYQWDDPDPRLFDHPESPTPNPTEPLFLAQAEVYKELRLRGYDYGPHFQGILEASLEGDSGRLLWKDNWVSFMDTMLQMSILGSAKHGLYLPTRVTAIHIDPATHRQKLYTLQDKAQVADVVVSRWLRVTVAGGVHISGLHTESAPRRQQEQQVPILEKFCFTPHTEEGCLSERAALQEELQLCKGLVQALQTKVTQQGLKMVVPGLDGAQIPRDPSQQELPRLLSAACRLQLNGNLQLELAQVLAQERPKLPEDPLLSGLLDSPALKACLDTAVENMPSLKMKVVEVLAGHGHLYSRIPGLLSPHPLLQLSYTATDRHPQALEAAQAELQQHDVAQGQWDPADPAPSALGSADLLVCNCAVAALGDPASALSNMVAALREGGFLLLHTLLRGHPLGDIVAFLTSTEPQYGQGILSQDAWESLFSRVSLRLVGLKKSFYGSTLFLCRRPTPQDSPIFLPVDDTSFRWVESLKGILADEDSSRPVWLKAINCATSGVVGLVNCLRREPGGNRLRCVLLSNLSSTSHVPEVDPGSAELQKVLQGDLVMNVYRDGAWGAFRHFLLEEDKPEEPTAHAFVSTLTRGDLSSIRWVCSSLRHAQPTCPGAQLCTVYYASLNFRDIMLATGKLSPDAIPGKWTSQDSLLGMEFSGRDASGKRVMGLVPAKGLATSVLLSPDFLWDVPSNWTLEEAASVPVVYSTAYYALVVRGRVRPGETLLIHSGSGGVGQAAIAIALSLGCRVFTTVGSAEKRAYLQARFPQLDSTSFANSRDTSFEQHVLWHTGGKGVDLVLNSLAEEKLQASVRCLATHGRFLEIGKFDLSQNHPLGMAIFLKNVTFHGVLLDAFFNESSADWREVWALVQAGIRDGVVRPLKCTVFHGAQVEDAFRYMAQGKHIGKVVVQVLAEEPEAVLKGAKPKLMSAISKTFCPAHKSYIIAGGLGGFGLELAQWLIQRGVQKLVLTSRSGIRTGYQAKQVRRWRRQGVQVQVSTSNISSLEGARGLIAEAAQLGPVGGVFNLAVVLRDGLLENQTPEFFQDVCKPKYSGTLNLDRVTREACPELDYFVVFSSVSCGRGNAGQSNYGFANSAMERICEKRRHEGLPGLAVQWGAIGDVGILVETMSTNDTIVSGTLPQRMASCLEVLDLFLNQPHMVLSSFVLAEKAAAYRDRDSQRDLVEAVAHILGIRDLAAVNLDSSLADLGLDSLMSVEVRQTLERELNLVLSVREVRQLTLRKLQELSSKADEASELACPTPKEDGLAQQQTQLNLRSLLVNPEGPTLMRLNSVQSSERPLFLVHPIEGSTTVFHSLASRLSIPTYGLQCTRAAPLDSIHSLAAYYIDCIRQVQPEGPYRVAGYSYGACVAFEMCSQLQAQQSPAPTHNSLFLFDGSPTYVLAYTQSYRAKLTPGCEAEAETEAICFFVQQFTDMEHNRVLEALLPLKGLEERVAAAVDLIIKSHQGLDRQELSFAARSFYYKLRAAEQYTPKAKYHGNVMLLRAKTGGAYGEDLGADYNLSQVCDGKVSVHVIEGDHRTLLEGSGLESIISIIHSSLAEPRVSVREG
row,SMILES,IC50 [nM]
1,CCN(C(=O)n1nnn(-c2c(Cl)cccc2Cl)c1=O)C1CCC(C(=O)N2CCN(C)CC2)CC1 (stereo not shown),> 10000
2,CCN(C(=O)n1nnn(-c2ccccc2C(C)(C)C)c1=O)C1CCCCC1,> 10000
3,CCN(C(=O)n1nnn(-c2ccccc2Oc2ccccc2)c1=O)C1CCCCC1,1000 to 10000
4,CCN(C(=O)n1nnn(-c2c(F)cccc2F)c1=O)c1ccc(C(=O)OCc2ccccc2)cc1,60 to 250
5,CCN(C(=O)n1nnn(-c2c(F)cccc2F)c1=O)C1CCCCC1,250 to 1000
6,CCN(C(=O)n1nnn(-c2ccc(Cl)cc2Cl)c1=O)C1CCCCC1,1000 to 10000
7,CCN(C(=O)n1nnn(-c2cccs2)c1=O)C1CCCCC1,1000 to 10000
8,CCN(C(=O)n1nnn(-c2c(Cl)cccc2Cl)c1=O)C1CCC(C(=O)N2CCOCC2)CC1 (stereo not shown),> 10000
9,CCN(C(=O)n1nnn(-c2ccccc2OC)c1=O)c1cc(C(=O)O)ccc1Cl,< 60
10,CCN(C(=O)n1nnn(-c2c(Cl)cccc2Cl)c1=O)c1cccc(C(=O)NS(=O)(=O)c2ccccc2)c1,< 60
11,CCN(C(=O)n1nnn(-c2ccccc2)c1=O)C1CCCCC1,> 10000
12,CCN(C(=O)n1nnn(-c2ccc(F)c(F)c2F)c1=O)C1CCCCC1,> 10000
13,O=C(O)c1ccc(N(CCc2cccnc2)C(=O)n2nnn(-c3c(Cl)cccc3Cl)c2=O)cc1,1000 to 10000
14,CCN(C(=O)n1nnn(-c2c(Cl)cccc2Cl)c1=O)c1ccccc1F,60 to 250
15,CCC(C)c1ccccc1-n1nnn(C(=O)N(CC)C2CCCCC2)c1=O (stereo not shown),1000 to 10000
16,CCN(C(=O)n1nnn(-c2c(C)cc(C)cc2C)c1=O)C1CCCCC1,> 10000
17,CCN(C(=O)n1nnn(-c2c(F)cccc2F)c1=O)c1ccc(C(=O)OCc2ccccc2)c(OC)c1,60 to 250
18,CCN(C(=O)n1nnn(-c2c(Cl)cccc2Cl)c1=O)C1CCN(C(=O)CCC(=O)O)CC1,1000 to 10000
19,CCN(C(=O)n1nnn(-c2c(F)cccc2Br)c1=O)c1ccccc1,60 to 250
20,CCN(C(=O)n1nnn(-c2c(C)cccc2C(C)(C)C)c1=O)C1CCCCC1,> 10000
21,COC(=O)C1CCc2ccccc2N1C(=O)n1nnn(-c2c(F)cccc2F)c1=O (stereo not shown),60 to 250
22,COc1ccc(C(=O)O)cc1N(CCCCc1ccccc1)C(=O)n1nnn(-c2c(F)cccc2F)c1=O,60 to 250
23,CC(C)(C)OC(=O)Nc1ccc2c(c1)CCCN2C(=O)n1nnn(-c2c(F)cccc2F)c1=O,60 to 250
24,CCN(C(=O)n1nnn(-c2c(Cl)cccc2Cl)c1=O)c1ccc(C(=O)O)cc1OC,60 to 250
25,CCN(C(=O)n1nnn(-c2c(Cl)cccc2Cl)c1=O)C1CCCC(C(=O)N2CCN(C)CC2)C1 (stereo not shown),1000 to 10000

row,SMILES,IC50 [nM]
1,CN(C)N(C(=O)n1nnn(-c2ccccc2F)c1=O)C1=CCCCC1,250 to 1000
2,Nc1ccc2c(c1)CCCN2C(=O)n1nnn(-c2c(F)cccc2F)c1=O,60 to 250
3,CC(C)N(C(=O)n1nnn(-c2c(F)cccc2F)c1=O)c1cccc(C(=O)OCc2ccccc2)c1,< 60
4,COc1ccc(C(=O)O)cc1N(CCCCc1ccccc1)C(=O)n1nnn(-c2ccccc2OC)c1=O,250 to 1000
5,CN(C(=O)n1nnn(-c2ccccc2Cl)c1=O)c1ccccn1,1000 to 10000
6,CCN(C(=O)n1nnn(-c2c(Cl)cccc2Cl)c1=O)[C@@H]1CCC[C@@H](C(=O)N2CCOCC2)C1,1000 to 10000
7,CCOC(=O)N1CCC(N(CC)C(=O)n2nnn(-c3c(Cl)cccc3Cl)c2=O)CC1,1000 to 10000
8,CS(=O)(=O)NC1CCCN(C(=O)n2nnn(-c3c(Cl)cccc3Cl)c2=O)C1 (stereo not shown),> 10000
9,O=C(N1CCCCc2ccccc21)n1nnn(-c2c(F)cccc2Br)c1=O,250 to 1000
10,CC(C)(C)OC(=O)N[C@@H]1CCN(C(=O)n2nnn(-c3c(Cl)cccc3Cl)c2=O)C1,1000 to 10000
11,CCN(C(=O)n1nnn(-c2ccccc2OC)c1=O)c1ccc(C(=O)O)cc1,60 to 250
12,O=C(N1CCOCC1)n1nnn(-c2ccccc2Cl)c1=O,> 10000
13,CCN(C(=O)n1nnn(-c2c(F)cccc2F)c1=O)c1ccc(Br)cc1F,60 to 250
14,CCN(C(=O)n1nnn(-c2c(Cl)cccc2Cl)c1=O)C1CCN(S(C)(=O)=O)CC1,1000 to 10000
15,CCN(C(=O)n1nnn(-c2cccc(Cl)c2Cl)c1=O)C1CCCCC1,1000 to 10000
16,Cc1ccccc1C#Cc1cccc(F)c1-n1nnn(C(=O)N2CCCC3CCCCC32)c1=O (stereo not shown),60 to 250
17,CCN(C(=O)n1nnn(-c2c(OC)cccc2OC)c1=O)c1ccc(C(=O)O)c(OC)c1,250 to 1000
18,C/C=C/C/C=C/CCCN(C)C(=O)n1nnn(-c2ccccc2Cl)c1=O,1000 to 10000
19,CN(C(=O)n1nnn(-c2c(F)cccc2F)c1=O)c1cccc(F)c1,60 to 250
20,CCN(C(=O)n1nnn(-c2c(Cl)cccc2Cl)c1=O)c1cccc(CO)c1,250 to 1000
21,CCN(C(=O)n1nnn(-c2ccc(Br)cc2Br)c1=O)C1CCCCC1,1000 to 10000
22,O=C(N1CCCC2CCCCC21)n1nnn(-c2c(Cl)cccc2Cl)c1=O (stereo not shown),250 to 1000
23,COc1ccc(C(=O)OCc2ccccc2)cc1N(CCCCc1ccccc1)C(=O)n1nnn(-c2ccccc2OC)c1=O,1000 to 10000
24,CCN(C(=O)n1nnn(-c2ccc(F)cc2F)c1=O)C1CCCCC1,1000 to 10000
25,CCNC(=O)n1nnn(-c2ccccc2)c1=O,> 10000

row,SMILES,IC50 [nM]
1,O=C(O)c1ccc(N(CCc2ccccc2)C(=O)n2nnn(-c3ccccc3)c2=O)cc1,250 to 1000
2,CCN(C(=O)n1nnn(-c2ccccc2OC)c1=O)c1cc(C(=O)O)ccc1OC(C)C,1000 to 10000
3,CCNC(=O)N1CCC(N(CC)C(=O)n2nnn(-c3c(Cl)cccc3Cl)c2=O)CC1,1000 to 10000
4,CCN(C(=O)n1nnn(-c2c(Cl)cccc2Cl)c1=O)C1CCC(C(=O)OCc2ccc(OC)cc2)CC1 (stereo not shown),> 10000
5,CCN(C(=O)n1nnn(-c2c(C)nn(C)c2C)c1=O)C1CCCCC1,> 10000
6,CC(C)N(C(=O)n1nnn(-c2ccccc2Cl)c1=O)c1ccccc1,250 to 1000
7,C=CCN(C(=O)n1nnn(-c2c(Cl)cccc2Cl)c1=O)c1ccccc1,1000 to 10000
8,CCN(C(=O)n1nnn(-c2ccccc2)c1=O)c1cc(C(=O)O)ccc1OC,60 to 250
9,CC(C)N(C(=O)n1nnn(-c2c(F)cccc2F)c1=O)c1ccccc1,60 to 250
10,CCN(C(=O)n1nnn(-c2c(Cl)cccc2Cl)c1=O)C1CCCN(C(=O)CCC(=O)O)C1 (stereo not shown),1000 to 10000
11,CCN(C(=O)n1nnn(-c2ccccc2F)c1=O)C1CCCCC1,1000 to 10000
12,O=C(OCc1ccccc1)c1ccc2c(c1)CCCN2C(=O)n1nnn(-c2c(Cl)cccc2Cl)c1=O,1000 to 10000
13,CCN(C(=O)n1nnn(-c2ccccc2OC)c1=O)c1ccc(C(=O)OCc2ccccc2)c(OC)c1,60 to 250
14,CCN(C(=O)n1nnn(-c2c(Cl)cccc2Cl)c1=O)C1CCCCC1,1000 to 10000
15,CCN(C(=O)n1nnn(-c2ccccc2Cl)c1=O)C(C)(C)C,> 10000
16,CCN(C(=O)n1nnn(-c2c(Cl)cccc2Cl)c1=O)c1cccc(CO[Si](C)(C)C(C)(C)C)c1,60 to 250
17,CN(C(=O)n1nnn(-c2ccccc2Cl)c1=O)c1cccc(F)c1,250 to 1000
18,CNC(=O)CN(C(=O)n1nnn(-c2c(Cl)cccc2Cl)c1=O)C1CCCCC1,1000 to 10000
19,CCCN(C(=O)n1nnn(-c2c(F)cccc2F)c1=O)c1ccccc1,60 to 250
20,O=C(OCc1ccccc1)c1ccc(N(CCc2cccnc2)C(=O)n2nnn(-c3c(Cl)cccc3Cl)c2=O)cc1,250 to 1000
21,CCN(C(=O)n1nnn(-c2ccc(C(F)(F)F)cc2)c1=O)C1CCCCC1,> 10000
22,C=CCN(C(=O)n1nnn(-c2ccccc2Oc2ccccc2)c1=O)C1CCN(C(=O)OC(C)(C)C)CC1,1000 to 10000
23,CCN(C(=O)n1nnn(-c2ccccc2-c2ccccc2)c1=O)c1ccccc1F,60 to 250
